The record followed here is PMC4357015, “Structure, Function and Inhibition of the Phosphoethanolamine Methyltransferases of the Human Malaria Parasites Plasmodium vivax and Plasmodium knowlesi” (Scientific Reports, 2015).

For series [1], the target named is T1, PvPMT (Plasmodium vivax, UniProt A5K867).
T1 sequence (A5K867 1-264): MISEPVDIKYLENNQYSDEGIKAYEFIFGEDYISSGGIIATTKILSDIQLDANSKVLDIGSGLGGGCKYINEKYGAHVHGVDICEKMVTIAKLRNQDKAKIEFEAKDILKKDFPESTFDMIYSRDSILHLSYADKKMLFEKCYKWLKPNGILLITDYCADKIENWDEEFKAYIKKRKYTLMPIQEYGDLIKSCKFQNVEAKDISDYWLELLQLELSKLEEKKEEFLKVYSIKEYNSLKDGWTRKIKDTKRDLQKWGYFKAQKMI
Briefly: radiometric PMT transmethylation assay, inhibition of PvPMT. In kind it is biochemical. Here is the method: (§1) Figure 3 Amodiaquine (AQ) and NSC158011 inhibit the activity of PvPMT and PkPMT. Enzyme inhibition assays with different concentrations of Amodiaquine (AQ), NSC158011 and Chloroquine (CQ) were carried out at constant P-Etn (2 mM) and SAM (1.5 mM) concentrations. The activity in the absence of any drug was taken as 100% and % enzyme activity was calculated in the presence of different drug concentrations (100, 500, 1000 μM). To determine the concentration that results in 50% inhibition of enzyme activity (IC50), the data were fitted to a non-linear regression analysis in the following equation Y = 100/(1 + ([X]/IC50)), where Y is % enzyme activity and X is drug concentration using Graph pad software.
(§2) For enzyme kinetics studies recombinant histidine-tagged proteins were expressed using 1 mM IPTG for 4 h, purified using Ni-affinity purification and dialyzed. As expected, purified proteins migrated in SDS-PAGE gels at approximately 31 kDa. The purified proteins were stored in HEPES-KOH buffer (pH 7.4) at 4°C and were assayed within a month of purification. During this time, the integrity of the protein was assessed by SDS-PAGE. The kinetic properties of enzymes were assessed using radiometric assay wherein incorporation of radioactive labeled methyl donor (100nCi [methyl-^14C] SAM, Perkin elmer NEC363010UC) or (200nCi [methyl-^3H] SAM, Perkin Elmer NET155H250UC) was measured. […]

The target of series [2] is T2, PkPMT (Plasmodium knowlesi, UniProt A0A384KJX3).
T2 sequence (A0A384KJX3 1-264): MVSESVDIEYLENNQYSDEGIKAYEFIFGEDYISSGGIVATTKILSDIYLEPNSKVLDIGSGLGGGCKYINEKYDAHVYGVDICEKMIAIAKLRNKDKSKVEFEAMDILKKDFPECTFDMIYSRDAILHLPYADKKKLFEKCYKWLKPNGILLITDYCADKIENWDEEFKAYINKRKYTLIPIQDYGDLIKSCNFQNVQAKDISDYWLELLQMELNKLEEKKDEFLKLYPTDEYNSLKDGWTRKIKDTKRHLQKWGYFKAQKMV
The experiment in a line: radiometric PMT transmethylation assay, inhibition of PkPMT. The series is classed as biochemical. Here is the method: as §1, §2

The target in series [3] is T1, PvPMT. The experiment in a line: kinetic parameters of PvPMT, radiometric assay. The series is classed as biochemical. The conditions noted are these: varied substrate, other constant (SAM 1.5 mM or P-Etn 2.0 mM). Here is the method: (§3) Figure 2 Analysis of kinetic parameters of P.vivax (top panel) and P. knowlesi PMT enzymes (bottom panel). The Km values for phosphoethanolamine (P-Etn) was determined under standard assay conditions with varying concentrations of P-Eth (0–800 μM) and at constant S-adenosylmethionine (SAM) concentration of 1.5 mM. The Km values for SAM were determined under standard assay conditions with varying concentrations of SAM (0–600 μM) and at constant P-Etn concentration of 2.0 mM. All data were fitted to the Michaelis-Menten equation, v = (kcat [Et][S])/(Km + [S]) using Graph pad software.
(§4) For enzyme kinetics studies recombinant histidine-tagged proteins were expressed using 1 mM IPTG for 4 h, purified using Ni-affinity purification and dialyzed. As expected, purified proteins migrated in SDS-PAGE gels at approximately 31 kDa. The purified proteins were stored in HEPES-KOH buffer (pH 7.4) at 4°C and were assayed within a month of purification. During this time, the integrity of the protein was assessed by SDS-PAGE. The kinetic properties of enzymes were assessed using radiometric assay wherein incorporation of radioactive labeled methyl donor (100nCi [methyl-^14C] SAM, Perkin elmer NEC363010UC) or (200nCi [methyl-^3H] SAM, Perkin Elmer NET155H250UC) was measured. The enzymatic assay conditions were carried out in 100 μl volume containing 0.1 M Hepes, KOH (pH8.6), 2 mM Na2EDTA and10% glycerol. For NSC158011 related studies, 10% DMSO was added to the reaction mixture. Purified enzyme (322 nM) was used in each reaction and the reactions were incubated at 37°C for 30 minutes, thereafter the reaction was terminated using 1 ml cold water. Afterwards, the product was purified by batch purification using AG (H+ resin) (Biorad # 142-1451) using the protocol provided by the manufacturer. The product was eluted from resin using 1.5 ml of 0.1 N HCl and total radioactivity was measured using the scintillation cocktail (Biosafe II).
(§5) To determine the Km value for P-Eth, enzymatic reactions were carried out with 0-0.8 mM of P-Eth at constant 1.5 mM SAM. Similarly Km value for SAM was carried with 0–0.6 mM SAM at constant 2 mM P-Ethanolamine (P-Etn). The inhibition of PvPMT and PkPMT by AQ, CQ and NSC158011were also examined using the same radiometric PMT transmethylation assay. Enzyme activity was evaluated at 0, 100, 500 and 1000 μM of the inhibitor at a fixed concentration of P-Eth (2 mM) and SAM (1.5 mM). To calculate IC50 the data was fitted to non-linear regression analysis in the following equation Y = 100/(1 + ([X]/IC50)), where Y is % enzyme activity and X is inhibitor concentration using Graph pad software.

In series [4] the target is T2, PkPMT. Briefly: kinetic parameters of PkPMT, radiometric assay. In kind it is biochemical. The conditions noted are these: varied substrate, other constant (SAM 1.5 mM or P-Etn 2.0 mM). Here is the method:
as §3, §4, §5

Substrate in series [5]: C[S+](CC[C@H](N)C(=O)[O-])C[C@H]1O[C@@H](n2cnc3c(N)ncnc32)[C@H](O)[C@@H]1O
Briefly: kinetic parameters of PkPMT, radiometric assay. The series is classed as biochemical, Plasmodium knowlesi. The conditions noted are these: other: PkPMT; varied substrate, other constant (SAM 1.5 mM or P-Etn 2.0 mM); 37.0 °C. Here is the method:
as §3, §4
(§6) To determine the Km value for P-Eth, enzymatic reactions were carried out with 0-0.8 mM of P-Eth at constant 1.5 mM SAM. […]

Substrate in series [6]: C[S+](CC[C@H](N)C(=O)[O-])C[C@H]1O[C@@H](n2cnc3c(N)ncnc32)[C@H](O)[C@@H]1O
The experiment in a line: kinetic parameters of PvPMT, radiometric assay. The conditions noted are these: other: PvPMT; varied substrate, other constant (SAM 1.5 mM or P-Etn 2.0 mM); 37.0 °C. In kind it is biochemical, Plasmodium vivax. Here is the method:
as §3, §4, §6

Regarding `CCN(CC)CCCC(C)Nc1ccnc2cc(Cl)ccc12` (stereo not shown) [CQ, chloroquine], the values for the IC50 on PvPMT [1] and on PkPMT [2] were 146 µM and 987 µM, respectively.

In the case of `NCCOP(=O)(O)O` [P-Etn, phosphoethanolamine], on PvPMT [3], the Kcat is 0.00083 ± 0.00017 s⁻¹, the Km was 210 ± 70 µM and the Vmax amounted to 18.67 ± 2.93 nmolmin^−1 mg^−1Protein. Also, at PkPMT [4], the Kcat amounted to 0.00433 ± 0.00033 s⁻¹, the Km worked out at 100 ± 30 µM and the Vmax was 86.01 ± 8.35 nmolmin^−1 mg^−1Protein.

On to `C[S+](CC[C@H](N)C(=O)[O-])C[C@H]1O[C@@H](n2cnc3c(N)ncnc32)[C@H](O)[C@@H]1O` (stereo partly shown) [SAM, S-adenosylmethionine], for which the Vmax at PvPMT [3] turned out to be 12.62 ± 0.95 nmolmin^−1 mg^−1Protein; on PkPMT [4] it was 119.7 ± 15.41 nmolmin^−1 mg^−1Protein.

B1: PkPMT (Plasmodium knowlesi strain H) (protein)
chain: MVSESVDIEYLENNQYSDEGIKAYEFIFGEDYISSGGIVATTKILSDIYLEPNSKVLDIGSGLGGGCKYINEKYDAHVYGVDICEKMIAIAKLRNKDKSKVEFEAMDILKKDFPECTFDMIYSRDAILHLPYADKKKLFEKCYKWLKPNGILLITDYCADKIENWDEEFKAYINKRKYTLIPIQDYGDLIKSCNFQNVQAKDISDYWLELLQMELNKLEEKKDEFLKLYPTDEYNSLKDGWTRKIKDTKRHLQKWGYFKAQKMV
Turning to B1, in series [5], the Michaelis-Menten constant (Km) came out at 270 ± 90 µM, the kcat was found to be 0.00617 ± 0.0005 s⁻¹ and the kcat/Km came to 22.8 M⁻¹ s⁻¹.

B2: PvPMT (Plasmodium vivax Sal-1) (protein)
chain: MISEPVDIKYLENNQYSDEGIKAYEFIFGEDYISSGGIIATTKILSDIQLDANSKVLDIGSGLGGGCKYINEKYGAHVHGVDICEKMVTIAKLRNQDKAKIEFEAKDILKKDFPESTFDMIYSRDSILHLSYADKKMLFEKCYKWLKPNGILLITDYCADKIENWDEEFKAYIKKRKYTLMPIQEYGDLIKSCKFQNVEAKDISDYWLELLQLELSKLEEKKEEFLKVYSIKEYNSLKDGWTRKIKDTKRDLQKWGYFKAQKMI
For B2, in series [6], the Km stood at 230 ± 70 µM, the kcat came out at 0.000667 ± 0.000333 s⁻¹ and the kcat/Km was found to be 2.83 M⁻¹ s⁻¹.
